Experimental data published in PubChem BioAssay (NCI).
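Where inhibition never reached the appropriate level, the endpoint shown equals the highest concentration tested. Otherwise, values were interpolated linearly from a five-concentration, 48-hour dose response in 96-well plates. TGI: concentration producing complete growth inhibition.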

How the values were obtained:
Assay in all cases: inhibition of tumour cell growth, NCI panel, 48 h
SF-539 CNS = system: SF-539 CNS
K-562 leukemia = system: K-562 leukemia
SNB-75 CNS = system: SNB-75 CNS
CAKI-1 renal = system: CAKI-1 renal
OVCAR-5 ovarian = system: OVCAR-5 ovarian
TK-10 renal = system: TK-10 renal
NCI-H226 lung = system: NCI-H226 lung
A549 NSCLC = system: A549 NSCLC
OVCAR-3 ovarian = system: OVCAR-3 ovarian
HCT-15 colon = system: HCT-15 colon
RPMI-8226 leukemia = system: RPMI-8226 leukemia
SW-620 colon = system: SW-620 colon
NCI/ADR-RES ovarian = system: NCI/ADR-RES ovarian
OVCAR-4 ovarian = system: OVCAR-4 ovarian
SK-OV-3 ovarian = system: SK-OV-3 ovarian
CCRF-CEM leukemia = system: CCRF-CEM leukemia
U251 CNS = system: U251 CNS
OVCAR-8 ovarian = system: OVCAR-8 ovarian
NCI-H23 lung = system: NCI-H23 lung
SF-295 CNS = system: SF-295 CNS
HOP-92 NSCLC = system: HOP-92 NSCLC
HL-60(TB) leukemia = system: HL-60(TB) leukemia
SR leukemia = system: SR leukemia
MDA-MB-231 breast = system: MDA-MB-231 breast
SNB-19 CNS = system: SNB-19 CNS
HCT-116 colon = system: HCT-116 colon
HCC-2998 colon = system: HCC-2998 colon
DU-145 prostate = system: DU-145 prostate
PC-3 prostate = system: PC-3 prostate
HOP-62 NSCLC = system: HOP-62 NSCLC
RXF 393 renal = system: RXF 393 renal
SK-MEL-5 melanoma = system: SK-MEL-5 melanoma
IGROV1 ovarian = system: IGROV1 ovarian
T-47D breast = system: T-47D breast
MCF7 breast = system: MCF7 breast
UACC-257 melanoma = system: UACC-257 melanoma
SK-MEL-28 melanoma = system: SK-MEL-28 melanoma
EKVX NSCLC = system: EKVX NSCLC
SK-MEL-2 melanoma = system: SK-MEL-2 melanoma
UO-31 renal = system: UO-31 renal
786-0 renal = system: 786-0 renal
LOX IMVI melanoma = system: LOX IMVI melanoma
A498 renal = system: A498 renal
MOLT-4 leukemia = system: MOLT-4 leukemia
COLO 205 colon = system: COLO 205 colon
ACHN renal = system: ACHN renal
KM12 colon = system: KM12 colon
NCI-H460 lung = system: NCI-H460 lung
SN12C renal = system: SN12C renal
MDA-N = system: MDA-N
HT29 colon = system: HT29 colon
MDA-MB-435 = system: MDA-MB-435
MALME-3M melanoma = system: MALME-3M melanoma
HS 578T breast = system: HS 578T breast
SF-268 CNS = system: SF-268 CNS
NCI-H522 lung = system: NCI-H522 lung
M14 melanoma = system: M14 melanoma

Measured: TGI

Cc1cc2c(cc1C(=O)CCC(=O)O)CC1(C2)Cc2cc(C)c(C(=O)CCC(=O)O)cc2C1
> 100 µM: all assays above
